Experimental data as given in PubChem BioAssay (NCI).
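Assay format: 96-well plates, 48-hour exposure. TGI: concentration producing complete growth inhibition.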

What was measured:
Experiment in all cases: growth of human tumour cells (NCI), 48 h
ACHN renal = test system: ACHN renal
MCF7 breast = test system: MCF7 breast
EKVX NSCLC = test system: EKVX NSCLC
CCRF-CEM leukemia = test system: CCRF-CEM leukemia
LOX IMVI melanoma = test system: LOX IMVI melanoma
NCI/ADR-RES ovarian = test system: NCI/ADR-RES ovarian
HS 578T breast = test system: HS 578T breast
CAKI-1 renal = test system: CAKI-1 renal
HCT-116 colon = test system: HCT-116 colon
HOP-62 NSCLC = test system: HOP-62 NSCLC

Question: `C=C1CC(Cn2ccc(=O)[nH]c2=O)(c2ccc(Cl)cc2)OC1=O` (stereo not given) was tested. Which TGI (ACHN renal) did it give?
Answer: Its TGI is 10.4 µM.

Question: What about the TGI (MCF7 breast) of the same compound?
Answer: Its TGI is 7.56 µM.

Question: And the TGI (EKVX NSCLC)?
Answer: The TGI was 35 µM.

Question: And the TGI (CCRF-CEM leukemia)?
Answer: The TGI was 3.46 µM.

Question: And the TGI (LOX IMVI melanoma)?
Answer: Its TGI is 5.94 µM.

Question: What about the TGI (NCI/ADR-RES ovarian) of the same compound?
Answer: Its TGI is 19 µM.

Question: And the TGI (HS 578T breast)?
Answer: Its TGI is 38.7 µM.

Question: What about the TGI (CAKI-1 renal) of the same compound?
Answer: The TGI was 6.77 µM.

Question: And the TGI (HCT-116 colon)?
Answer: Its TGI is 5.63 µM.

Question: And the TGI (HOP-62 NSCLC)?
Answer: Its TGI is 36.4 µM.

Question: Which results are given for `COC(=O)c1c(C#N)c(N)nc2c1CCC2`?
Answer: TGI (ACHN renal): > 100 µM; TGI (MCF7 breast): > 100 µM; TGI (EKVX NSCLC): > 100 µM; TGI (CCRF-CEM leukemia): > 100 µM; TGI (LOX IMVI melanoma): > 100 µM; TGI (NCI/ADR-RES ovarian): > 100 µM; TGI (HS 578T breast): > 100 µM; TGI (CAKI-1 renal): > 100 µM; TGI (HCT-116 colon): > 100 µM; TGI (HOP-62 NSCLC): > 100 µM

Question: `Clc1cccc(NN=Nc2ccc(-c3nc4ccccc4s3)cc2)c1` was tested. Which TGI (ACHN renal) did it give?
Answer: Its TGI is greater than 100 µM.

Question: What about the TGI (MCF7 breast) of the same compound?
Answer: Its TGI is greater than 100 µM.

Question: And the TGI (EKVX NSCLC)?
Answer: Its TGI is greater than 100 µM.

Question: What about the TGI (CCRF-CEM leukemia) of the same compound?
Answer: The TGI was 37.7 µM.

Question: What about the TGI (LOX IMVI melanoma) of the same compound?
Answer: Its TGI is greater than 100 µM.

Question: What about the TGI (NCI/ADR-RES ovarian) of the same compound?
Answer: Its TGI is 74.1 µM.

Question: And the TGI (HS 578T breast)?
Answer: Its TGI is greater than 100 µM.

Question: What about the TGI (CAKI-1 renal) of the same compound?
Answer: Its TGI is greater than 100 µM.

Question: And the TGI (HCT-116 colon)?
Answer: The TGI was greater than 100 µM.

Question: And the TGI (HOP-62 NSCLC)?
Answer: Its TGI is greater than 100 µM.
